Counter-ions that a name gives are not always drawn.
Test system: ATCC 6633 Bacillus subtilis strain
Experiment: agar diffusion determination of antibiotic content / biological potency (USP XXII)
Format: cell-based
Details: final product of Example 5, related to USP reference standard
Experimental: The quantitative determination of the antibiotic content of the fermentation broth and final product was performed by using the agar diffusion method according to the prescriptions of USP XXII. on the ATCC 6633 Bacillus subtilis strain. The vancomycin potency values were related to the commercially available USP reference standard.

CN[C@H](CC(C)C)C(=O)N[C@H]1C(=O)N[C@@H](CC(N)=O)C(=O)N[C@H]2C(=O)N[C@H]3C(=O)N[C@H](C(=O)N[C@H](C(=O)O)c4cc(O)cc(O)c4-c4cc3ccc4O)[C@H](O)c3ccc(c(Cl)c3)Oc3cc2cc(c3O[C@@H]2O[C@H](CO)[C@@H](O)[C@H](O)[C@H]2O[C@H]2C[C@](C)(N)[C@H](O)[C@H](C)O2)Oc2ccc(cc2Cl)[C@H]1O [vancomycin hydrochloride]
biological potency based on microbiological determination: higher than 968 μg/mg
